From ChEMBL document CHEMBL1156996 (Bioorg Med Chem Lett, 2010)

Columns and labels:
[1] = inhibition of Cryptococcus neoformans recombinant Can2 after 15 mins by stopped-flow CO2 hydration assay
Carbonic anhydrase = biological target: T1, Carbonic anhydrase (Candida albicans (strain SC5314 / ATCC MYA-2876) (Yeast), UniProt Q5AJ71); assay: inhibition of Candida albicans recombinant Nce103 after 15 mins by stopped-flow CO2 hydration assay
T1 sequence (Q5AJ71 whole entry): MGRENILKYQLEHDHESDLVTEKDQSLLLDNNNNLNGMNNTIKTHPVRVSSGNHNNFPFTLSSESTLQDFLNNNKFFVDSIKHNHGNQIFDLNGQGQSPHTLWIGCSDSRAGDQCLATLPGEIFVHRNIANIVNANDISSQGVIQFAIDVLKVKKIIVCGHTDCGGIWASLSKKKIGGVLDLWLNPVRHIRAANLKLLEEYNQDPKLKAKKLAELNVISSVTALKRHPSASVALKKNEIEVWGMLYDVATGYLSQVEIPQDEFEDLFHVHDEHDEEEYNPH

[2] = Selectivity ratio of IC50 for human CA2 to IC50 for Cryptococcus neoformans Can2
[3] = Selectivity ratio of IC50 for human CA1 to IC50 for Cryptococcus neoformans Can2
[4] = biological target: T2, Carbonic anhydrase (Candida albicans (strain SC5314 / ATCC MYA-2876) (Yeast)) (UniProt Q5AJ71); assay: Ratio of compound to acetazolamide activity for inhibition of Candida albicans recombinant Nce103
T2 sequence (whole entry): T1 sequence (Q5AJ71 whole entry)

Compound | Ki [1] | Ki (Carbonic anhydrase) | Ratio IC50 [2] | Ratio IC50 [3] | Ratio [4]
Cc1cc(C)[n+](NC(=O)c2[nH]c3ccc(S(N)(=O)=O)cc3c2-c2ccccc2F)c(C)c1.[O-][Cl+3]([O-])([O-])[O-] | 16.2 nM | 19 nM | – | – | –
NNC(=O)c1[nH]c2ccc(S(N)(=O)=O)cc2c1-c1ccccc1Br | 62 nM | 81 nM | – | – | –
Cc1cc(C)[n+](NC(=O)c2[nH]c3ccc(S(N)(=O)=O)cc3c2-c2cccc(Cl)c2)c(C)c1.[O-][Cl+3]([O-])([O-])[O-] | 4.4 nM | 31 nM | – | – | –
NNC(=O)c1[nH]c2ccc(S(N)(=O)=O)cc2c1-c1ccc(Br)cc1 | 118 nM | 94 nM | – | – | –
Cc1cccc(-c2c(C(=O)N[n+]3c(C)cc(C)cc3C)[nH]c3ccc(S(N)(=O)=O)cc23)c1.[O-][Cl+3]([O-])([O-])[O-] | 6.1 nM | 64 nM | – | – | –
Cc1cc(C)[n+](NC(=O)c2[nH]c3ccc(S(N)(=O)=O)cc3c2-c2ccccc2Cl)c(C)c1.[O-][Cl+3]([O-])([O-])[O-] | 15.4 nM | 33 nM | – | – | –
Cc1ccc(-c2c(C(=O)N[n+]3c(C)cc(C)cc3C)[nH]c3ccc(S(N)(=O)=O)cc23)cc1.[O-][Cl+3]([O-])([O-])[O-] | 5.9 nM | 41 nM | – | – | –
Cc1cc(C)[n+](NC(=O)c2[nH]c3ccc(S(N)(=O)=O)cc3c2-c2ccc(Br)cc2)c(C)c1.[O-][Cl+3]([O-])([O-])[O-] | 10.9 nM | 53 nM | – | – | –
Cc1cccc(-c2c(C(=O)NN)[nH]c3ccc(S(N)(=O)=O)cc23)c1 | 9.1 nM | 43 nM | 5.1 | 80.2 | –
Cc1cc(C)[n+](NC(=O)c2[nH]c3ccc(S(N)(=O)=O)cc3c2-c2ccccc2Br)c(C)c1.[O-][Cl+3]([O-])([O-])[O-] | 12.1 nM | 45 nM | – | – | –
NNC(=O)c1[nH]c2ccc(S(N)(=O)=O)cc2c1-c1ccccc1Cl | 8 nM | 45 nM | 4.8 | 80 | –
Cc1cc(C)[n+](NC(=O)c2[nH]c3ccc(S(N)(=O)=O)cc3c2-c2ccccc2C)c(C)c1.[O-][Cl+3]([O-])([O-])[O-] | 6.5 nM | 62 nM | – | – | –
NNC(=O)c1[nH]c2ccc(S(N)(=O)=O)cc2c1-c1ccc(F)cc1 | 8.6 nM | 61 nM | – | – | –
NNC(=O)c1[nH]c2ccc(S(N)(=O)=O)cc2c1-c1ccccc1 | 72 nM | 85 nM | – | – | –
Cc1cc(C)[n+](NC(=O)c2[nH]c3ccc(S(N)(=O)=O)cc3c2-c2cccc(Br)c2)c(C)c1.[O-][Cl+3]([O-])([O-])[O-] | 14.3 nM | 48 nM | – | – | –
Cc1cc(C)[n+](NC(=O)c2[nH]c3ccc(S(N)(=O)=O)cc3c2-c2cccc(F)c2)c(C)c1.[O-][Cl+3]([O-])([O-])[O-] | 8.3 nM | 24 nM | – | – | –
Cc1cc(C)[n+](NC(=O)c2[nH]c3ccc(S(N)(=O)=O)cc3c2-c2ccccc2)c(C)c1.[O-][Cl+3]([O-])([O-])[O-] | 16.5 nM | 42 nM | – | – | –
Cc1ccccc1-c1c(C(=O)NN)[nH]c2ccc(S(N)(=O)=O)cc12 | 9.2 nM | 78 nM | – | – | –
NNC(=O)c1[nH]c2ccc(S(N)(=O)=O)cc2c1-c1c(F)c(F)c(F)c(F)c1F | 103 nM | – | – | – | 17.6
NNC(=O)c1[nH]c2ccc(S(N)(=O)=O)cc2c1-c1cccc(F)c1 | 7.2 nM | 54 nM | – | – | –
NNC(=O)c1[nH]c2ccc(S(N)(=O)=O)cc2c1-c1ccc(Cl)cc1 | 70 nM | 55 nM | – | – | –
COc1cccc(-c2c(C(=O)N[n+]3c(C)cc(C)cc3C)[nH]c3ccc(S(N)(=O)=O)cc23)c1.[O-][Cl+3]([O-])([O-])[O-] | 8.3 nM | 119 nM | – | – | –
NNC(=O)c1[nH]c2ccc(S(N)(=O)=O)cc2c1-c1ccccc1F | 7.9 nM | 47 nM | – | – | –
COc1cccc(-c2c(C(=O)NN)[nH]c3ccc(S(N)(=O)=O)cc23)c1 | 12 nM | 128 nM | – | – | –
Cc1cc(C)[n+](NC(=O)c2[nH]c3ccc(S(N)(=O)=O)cc3c2-c2ccc(Cl)cc2)c(C)c1.[O-][Cl+3]([O-])([O-])[O-] | 3.1 nM | 29 nM | – | – | –
Cc1ccc(-c2c(C(=O)NN)[nH]c3ccc(S(N)(=O)=O)cc23)cc1 | 10.5 nM | 52 nM | – | – | –
Cc1cc(C)[n+](NC(=O)c2[nH]c3ccc(S(N)(=O)=O)cc3c2-c2ccc(F)cc2)c(C)c1.[O-][Cl+3]([O-])([O-])[O-] | 8.7 nM | 21 nM | – | – | –
NNC(=O)c1[nH]c2ccc(S(N)(=O)=O)cc2c1-c1cccc(Br)c1 | 93 nM | 87 nM | – | – | –
NNC(=O)c1[nH]c2ccc(S(N)(=O)=O)cc2c1-c1cccc(Cl)c1 | 7.4 nM | 52 nM | – | – | –
Cc1cc(C)[n+](NC(=O)c2[nH]c3ccc(S(N)(=O)=O)cc3c2-c2c(F)c(F)c(F)c(F)c2F)c(C)c1.[O-][Cl+3]([O-])([O-])[O-] | 60.1 nM | 5.1 nM | – | – | –
